Test results reported in PubChem BioAssay (NCI).
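In this assay, cells in 96-well plates receive the compound at five concentrations for 48 hours. Endpoints are linearly interpolated between the surrounding concentrations. Here, GI50 denotes the concentration required for 50% inhibition of growth. TGI denotes the concentration required for complete inhibition of growth.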

Legend:
Assay in all cases: inhibition of tumour cell growth, NCI panel, 48 h
[1] = tested on: SN12C renal
[2] = tested on: NCI-H460 lung
[3] = tested on: IGROV1 ovarian
[4] = tested on: MOLT-4 leukemia
[5] = tested on: UO-31 renal
[6] = tested on: OVCAR-8 ovarian
[7] = tested on: OVCAR-3 ovarian
[8] = tested on: HCT-15 colon
[9] = tested on: BT-549 breast
[10] = tested on: SR leukemia
[11] = tested on: SF-295 CNS
[12] = tested on: TK-10 renal
[13] = tested on: U251 CNS
[14] = tested on: NCI/ADR-RES ovarian
[15] = tested on: NCI-H226 lung
[16] = tested on: SK-MEL-2 melanoma
[17] = tested on: HCT-116 colon
[18] = tested on: 786-0 renal
[19] = tested on: HS 578T breast
[20] = tested on: SK-MEL-28 melanoma
[21] = tested on: MDA-MB-435
[22] = tested on: UACC-62 melanoma
[23] = tested on: MDA-MB-231 breast
[24] = tested on: DU-145 prostate
[25] = tested on: HL-60(TB) leukemia
[26] = tested on: SW-620 colon
[27] = tested on: RPMI-8226 leukemia
[28] = tested on: OVCAR-4 ovarian
[29] = tested on: EKVX NSCLC
[30] = tested on: HOP-92 NSCLC
[31] = tested on: COLO 205 colon
[32] = tested on: KM12 colon
[33] = tested on: A549 NSCLC
[34] = tested on: HT29 colon
[35] = tested on: RXF 393 renal
[36] = tested on: M14 melanoma
[37] = tested on: T-47D breast
[38] = tested on: MALME-3M melanoma
[39] = tested on: NCI-H522 lung
[40] = tested on: OVCAR-5 ovarian
[41] = tested on: CCRF-CEM leukemia
[42] = tested on: SF-268 CNS
[43] = tested on: HCC-2998 colon
[44] = tested on: K-562 leukemia
[45] = tested on: SK-OV-3 ovarian
[46] = tested on: HOP-62 NSCLC
[47] = tested on: SF-539 CNS
[48] = tested on: PC-3 prostate
[49] = tested on: ACHN renal
[50] = tested on: MCF7 breast
[51] = tested on: CAKI-1 renal
[52] = tested on: A498 renal
[53] = tested on: UACC-257 melanoma
[54] = tested on: SK-MEL-5 melanoma
[55] = tested on: SNB-75 CNS
[56] = tested on: SNB-19 CNS
[57] = tested on: LOX IMVI melanoma

Compound: CCCCCCNC(=O)Oc1ccc(/C(=C(/C)c2ccccc2)c2ccc(OCCN3CCCCCC3)cc2)cc1
- GI50 [1]: 10.4 µM
- TGI [1]: 23.7 µM
- GI50 [2]: 4.27 µM
- TGI [2]: 16.1 µM
- GI50 [3]: 11.9 µM
- TGI [3]: 27.9 µM
- GI50 [4]: 3.48 µM
- TGI [4]: 25 µM
- GI50 [5]: 4.02 µM
- TGI [5]: 17 µM
- GI50 [6]: 13.1 µM
- TGI [6]: 26.6 µM
- GI50 [7]: 12 µM
- TGI [7]: 28.8 µM
- GI50 [8]: 2.83 µM
- TGI [8]: 9.61 µM
- GI50 [9]: 8.55 µM
- TGI [9]: 21.8 µM
- GI50 [10]: 2.58 µM
- TGI [10]: 12 µM
- GI50 [11]: 5.74 µM
- TGI [11]: 18.6 µM
- GI50 [12]: 16.3 µM
- TGI [12]: 30.5 µM
- GI50 [13]: 7.25 µM
- TGI [13]: 20.7 µM
- GI50 [14]: 12.3 µM
- TGI [14]: 28.8 µM
- GI50 [15]: 13.3 µM
- TGI [15]: 28.7 µM
- GI50 [16]: 14.1 µM
- TGI [16]: 27.6 µM
- GI50 [17]: 4.33 µM
- TGI [17]: 16.9 µM
- GI50 [18]: 5.42 µM
- TGI [18]: 18.7 µM
- GI50 [19]: 8.02 µM
- TGI [19]: 26.9 µM
- GI50 [20]: 5.98 µM
- TGI [20]: 19.8 µM
- GI50 [21]: 10.8 µM
- TGI [21]: 23.3 µM
- GI50 [22]: 9.09 µM
- TGI [22]: 22 µM
- GI50 [23]: 12.8 µM
- TGI [23]: 26.8 µM
- GI50 [24]: 15.7 µM
- TGI [24]: 37.7 µM
- GI50 [25]: 2.79 µM
- TGI [25]: 17.7 µM
- GI50 [26]: 3.18 µM
- TGI [26]: 12.5 µM
- GI50 [27]: 3.99 µM
- TGI [27]: 23 µM
- GI50 [28]: 10 µM
- TGI [28]: 23.4 µM
- GI50 [29]: 13.2 µM
- TGI [29]: 31.2 µM
- GI50 [30]: 2.9 µM
- TGI [30]: 14.9 µM
- GI50 [31]: 3.14 µM
- TGI [31]: 12.1 µM
- GI50 [32]: 6.31 µM
- TGI [32]: 35.6 µM
- GI50 [33]: 12.1 µM
- TGI [33]: 26.4 µM
- GI50 [34]: 3.07 µM
- TGI [34]: 11.1 µM
- GI50 [35]: 2.63 µM
- TGI [35]: 9.11 µM
- GI50 [36]: 2.89 µM
- TGI [36]: 11.1 µM
- GI50 [37]: 3.07 µM
- TGI [37]: 21 µM
- GI50 [38]: 7.97 µM
- TGI [38]: 21.5 µM
- GI50 [39]: 12.6 µM
- TGI [39]: 26 µM
- GI50 [40]: 12.4 µM
- TGI [40]: 27 µM
- GI50 [41]: 11.5 µM
- TGI [41]: > 100 µM
- GI50 [42]: 12.7 µM
- TGI [42]: 29.4 µM
- GI50 [43]: 11 µM
- TGI [43]: 23.5 µM
- GI50 [44]: 2.87 µM
- TGI [44]: > 100 µM
- GI50 [45]: 13 µM
- TGI [45]: 26.4 µM
- GI50 [46]: 13 µM
- TGI [46]: 26.9 µM
- GI50 [47]: 7.23 µM
- TGI [47]: 21 µM
- GI50 [48]: 6.2 µM
- TGI [48]: 20.4 µM
- GI50 [49]: 13.3 µM
- TGI [49]: 26.2 µM
- GI50 [50]: 0.172 µM
- TGI [50]: 13.1 µM
- GI50 [51]: 2.74 µM
- TGI [51]: 11.9 µM
- GI50 [52]: 15.7 µM
- TGI [52]: 29.4 µM
- GI50 [53]: 3.75 µM
- TGI [53]: 14.5 µM
- GI50 [54]: 14.2 µM
- TGI [54]: 27.6 µM
- GI50 [55]: 9.25 µM
- TGI [55]: 21.7 µM
- GI50 [56]: 16.6 µM
- TGI [56]: 69.8 µM

Compound: CCc1cccc2c3c(sc12)C(c1ccc(OC)cc1)C(C#N)=C(/N=C/c1ccc(Cl)cc1)O3 (stereo unspecified)
- GI50 [1]: 3.76 µM
- TGI [1]: 19.1 µM
- GI50 [2]: 1.02 µM
- TGI [2]: 10.4 µM
- GI50 [3]: 1.67 µM
- TGI [3]: > 100 µM
- GI50 [4]: 2.25 µM
- TGI [4]: 17.1 µM
- GI50 [5]: 1.85 µM
- TGI [5]: 49.6 µM
- GI50 [6]: 2.15 µM
- TGI [6]: 7.09 µM
- GI50 [57]: 1.87 µM
- TGI [57]: 15 µM
- GI50 [7]: 0.554 µM
- TGI [7]: 4.49 µM
- GI50 [8]: 0.6 µM
- TGI [8]: 11.2 µM
- GI50 [9]: 4.23 µM
- TGI [9]: 39.7 µM
- GI50 [10]: 0.361 µM
- TGI [10]: 5.97 µM
- GI50 [11]: 1.26 µM
- TGI [11]: 15.5 µM
- GI50 [12]: 20.5 µM
- TGI [12]: > 100 µM
- GI50 [13]: 3 µM
- TGI [13]: 13.8 µM
- GI50 [14]: 0.55 µM
- TGI [14]: 4.7 µM
- GI50 [15]: 2.59 µM
- TGI [15]: 13.1 µM
- GI50 [16]: 0.987 µM
- TGI [16]: 5.95 µM
- GI50 [17]: 1.07 µM
- TGI [17]: 10.3 µM
- GI50 [18]: 2.2 µM
- TGI [18]: 16.1 µM
- GI50 [19]: 1.9 µM
- TGI [19]: 7.8 µM
- GI50 [20]: 4.85 µM
- TGI [20]: 28 µM
- GI50 [21]: 0.227 µM
- TGI [21]: 0.578 µM
- GI50 [22]: 0.54 µM
- TGI [22]: 30.5 µM
- GI50 [23]: 2.95 µM
- TGI [23]: 13.6 µM
- GI50 [24]: 3.3 µM
- TGI [24]: > 100 µM
- GI50 [25]: 0.563 µM
- TGI [25]: 5.98 µM
- GI50 [26]: 1.14 µM
- TGI [26]: 15.7 µM
- GI50 [27]: 2.28 µM
- TGI [27]: 7.27 µM
- GI50 [28]: 6.65 µM
- TGI [28]: > 100 µM
- GI50 [29]: 5.94 µM
- TGI [29]: > 100 µM
- GI50 [30]: 5.48 µM
- TGI [30]: 53.3 µM
- GI50 [31]: 2.2 µM
- TGI [31]: 5 µM
- GI50 [32]: 2.06 µM
- TGI [32]: 33.2 µM
- GI50 [33]: 5.39 µM
- TGI [33]: > 100 µM
- GI50 [34]: 2.31 µM
- TGI [34]: 6.26 µM
- GI50 [35]: 0.72 µM
- TGI [35]: 2.56 µM
- GI50 [36]: 1.24 µM
- TGI [36]: 5.17 µM
- GI50 [37]: 2.43 µM
- TGI [37]: > 100 µM
- GI50 [38]: 0.921 µM
- TGI [38]: 44.3 µM
- GI50 [39]: 0.78 µM
- TGI [39]: 2.7 µM
- GI50 [40]: 3.97 µM
- TGI [40]: 27.8 µM
- GI50 [41]: 0.792 µM
- TGI [41]: 7.96 µM
- GI50 [42]: 5.6 µM
- TGI [42]: 44.4 µM
- GI50 [43]: 1.79 µM
- TGI [43]: 4.57 µM
- GI50 [44]: 0.363 µM
- TGI [44]: > 100 µM
- GI50 [45]: 2.42 µM
- TGI [45]: 45.4 µM
- GI50 [46]: 2.5 µM
- TGI [46]: 20.2 µM
- GI50 [47]: 1.59 µM
- TGI [47]: 4.29 µM
- GI50 [48]: 1.83 µM
- TGI [48]: 22.1 µM
- GI50 [49]: 3.16 µM
- TGI [49]: 19.4 µM
- GI50 [50]: 0.859 µM
- TGI [50]: 14.1 µM
- GI50 [51]: 0.595 µM
- TGI [51]: 29.1 µM
- GI50 [52]: 20.1 µM
- TGI [52]: > 100 µM
- GI50 [53]: 16.1 µM
- TGI [53]: > 100 µM
- GI50 [54]: 2.81 µM
- TGI [54]: 11.8 µM
- GI50 [55]: 1.35 µM
- TGI [55]: 15.3 µM
- GI50 [56]: 3.56 µM
- TGI [56]: > 100 µM
